Results as given in PMC4980693, “TRPV4 regulates calcium homeostasis, cytoskeletal remodeling, conventional outflow and intraocular pressure in the mammalian eye” (Scientific Reports, 2016).

Experiments:
[1] = biological target: T1, TRPV4 (transient receptor potential vanilloid 4) (Homo sapiens, UniProt Q9HBA0); test: whole-cell patch clamp and Fura-2 Ca2+ imaging in human trabecular meshwork cells (endogenous channel), agonist; type: cell-based
[2] = biological target: T1, TRPV4 (transient receptor potential vanilloid 4); test: inhibition of GSK101 ([…])-induced Ca2+ signals in human trabecular meshwork cells (Fura-2); putative prodrug analog of HC-067047; type: cell-based

T1 sequence (Q9HBA0 whole entry): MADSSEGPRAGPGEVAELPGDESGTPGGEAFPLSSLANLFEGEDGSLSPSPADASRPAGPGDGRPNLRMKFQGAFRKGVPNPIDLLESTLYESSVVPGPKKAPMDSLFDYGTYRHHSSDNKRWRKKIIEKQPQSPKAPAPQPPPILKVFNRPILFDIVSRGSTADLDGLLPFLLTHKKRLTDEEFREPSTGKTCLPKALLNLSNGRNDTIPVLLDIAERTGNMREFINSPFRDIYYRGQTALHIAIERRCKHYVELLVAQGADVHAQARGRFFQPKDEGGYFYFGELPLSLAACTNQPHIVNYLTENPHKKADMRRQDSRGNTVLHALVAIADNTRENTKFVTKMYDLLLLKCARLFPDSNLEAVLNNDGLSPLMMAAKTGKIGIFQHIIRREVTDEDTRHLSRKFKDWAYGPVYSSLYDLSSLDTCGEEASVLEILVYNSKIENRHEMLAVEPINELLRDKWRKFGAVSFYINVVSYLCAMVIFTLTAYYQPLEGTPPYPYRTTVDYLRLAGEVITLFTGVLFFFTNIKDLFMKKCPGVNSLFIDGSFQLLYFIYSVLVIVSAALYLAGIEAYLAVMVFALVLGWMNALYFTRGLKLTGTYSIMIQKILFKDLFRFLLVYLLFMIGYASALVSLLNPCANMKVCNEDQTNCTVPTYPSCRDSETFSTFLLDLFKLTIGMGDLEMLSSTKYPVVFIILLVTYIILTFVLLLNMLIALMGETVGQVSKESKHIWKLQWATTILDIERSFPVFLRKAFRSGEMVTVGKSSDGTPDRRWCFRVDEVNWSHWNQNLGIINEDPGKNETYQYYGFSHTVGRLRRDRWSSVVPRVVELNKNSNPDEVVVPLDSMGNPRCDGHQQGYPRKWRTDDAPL

IC50 [2] [nM] | Compound | EC50 [1] [nM]
– | CC(C)C[C@H](NC(=O)c1cc2ccccc2s1)C(=O)N1CCN(C(=O)[C@H](CO)NS(=O)(=O)c2ccc(Cl)cc2Cl)CC1 [GSK101, GSK1016790A] | ~25
740 ± 40 | Cc1c(C(=O)Nc2cccc(C(=O)OC(C)C)c2)cc(-c2ccccc2)n1CCCN1CCOCC1 [YX-02, isopropyl 3-(2-methyl-1-(3-morpholinopropyl)-5-phenyl-1H-pyrrole-3-carboxamido)benzoate] | –
